Calls of active or inactive are those of the source. The rule behind the calls is not given here.
Assays:
Rattus norvegicus [1] = test: Antinociceptive activity in icv dosed Rattus norvegicus albino (rat) tus norvegicus Sprague-Dawley (rat) assessed as maximal increase in paw withdrawal latency after 5 to 10 min by hot plate test; assay type: functional; conditions: for Emax: Rattus norvegicus, Sprague-Dawley albino, central
Rattus norvegicus [2] = test: Antinociceptive activity in icv dosed Rattus norvegicus albino (rat) tus norvegicus Sprague-Dawley (rat) assessed as maximal increase in paw withdrawal latency by hot plate test; assay type: functional, organism-based; conditions: TDE = time-dependent effect
Rattus norvegicus [3] = test: Antinociceptive activity in icv dosed Rattus norvegicus albino (rat) tus norvegicus Sprague-Dawley (rat) assessed as increase in thermal-stimulus induced tail flick latency after 5 to 10 min; assay type: functional; conditions: for Emax: Rattus norvegicus, Sprague-Dawley albino, Tail, central
Rattus norvegicus [4] = test: Antinociceptive activity in icv dosed Rattus norvegicus albino (rat) tus norvegicus Sprague-Dawley (rat) assessed as increase in thermal-stimulus induced tail flick latency; assay type: functional, organism-based; conditions: TDE = time-dependent effect
Rattus norvegicus [5] = test: Toxicity in icv dosed Rattus norvegicus albino (rat) tus norvegicus Sprague-Dawley (rat) assessed as behavioral changes; assay type: organism-based; conditions: in vivo, icv_or_intrathecal
Rattus norvegicus [6] = test: Neurotoxicity in icv dosed Rattus norvegicus albino (rat) tus norvegicus Sprague-Dawley (rat) assessed as motor impairment; assay type: toxicity, organism-based; conditions: in vivo, icv_or_intrathecal
Rattus norvegicus [7] = test: Neurotoxicity in Rattus norvegicus albino (rat) tus norvegicus Sprague-Dawley (rat) assessed as motor impairment at 20 to 60 ug, icv; assay type: toxicity, organism-based; conditions: in vivo, icv_or_intrathecal
Rattus norvegicus [8] = test: Antinociceptive activity in Rattus norvegicus albino (rat) tus norvegicus Sprague-Dawley (rat) assessed as maximal increase in paw withdrawal latency at 20 to 60 ug, icv by hot plate test; assay type: functional, organism-based; conditions: TDE = time-dependent effect
Rattus norvegicus [9] = test: Antinociceptive activity in Rattus norvegicus albino (rat) tus norvegicus Sprague-Dawley (rat) assessed as increase in thermal-stimulus induced tail flick latency at 20 to 60 ug, icv after 30 to 60 min; assay type: functional, organism-based
Rattus norvegicus [10] = test: Antinociceptive activity in Rattus norvegicus albino (rat) tus norvegicus Sprague-Dawley (rat) assessed as maximal increase in paw withdrawal latency at 20 to 60 ug, icv after 30 to 60 min by hot plate test; assay type: functional, organism-based
Rattus norvegicus [11] = test: Antinociceptive activity in Rattus norvegicus albino (rat) tus norvegicus Sprague-Dawley (rat) assessed as increase in thermal-stimulus induced tail flick latency at 20 to 60 ug, icv; assay type: functional, organism-based; conditions: TDE = time-dependent effect
Rattus norvegicus [12] = test: Toxicity in Rattus norvegicus albino (rat) tus norvegicus Sprague-Dawley (rat) assessed as behavioral changes at 20 to 60 ug, icv; assay type: organism-based; conditions: in vivo, icv_or_intrathecal
Histamine H3 receptor [13] = target: Histamine H3 receptor (Cavia porcellus, UniProt Q9JI35); test: Binding affinity to histamine H3 receptor in Cavia porcellus (guinea pig) ileum; assay type: tissue-based
Chain of Histamine H3 receptor (Cavia porcellus, UniProt Q9JI35) (Q9JI35 whole entry): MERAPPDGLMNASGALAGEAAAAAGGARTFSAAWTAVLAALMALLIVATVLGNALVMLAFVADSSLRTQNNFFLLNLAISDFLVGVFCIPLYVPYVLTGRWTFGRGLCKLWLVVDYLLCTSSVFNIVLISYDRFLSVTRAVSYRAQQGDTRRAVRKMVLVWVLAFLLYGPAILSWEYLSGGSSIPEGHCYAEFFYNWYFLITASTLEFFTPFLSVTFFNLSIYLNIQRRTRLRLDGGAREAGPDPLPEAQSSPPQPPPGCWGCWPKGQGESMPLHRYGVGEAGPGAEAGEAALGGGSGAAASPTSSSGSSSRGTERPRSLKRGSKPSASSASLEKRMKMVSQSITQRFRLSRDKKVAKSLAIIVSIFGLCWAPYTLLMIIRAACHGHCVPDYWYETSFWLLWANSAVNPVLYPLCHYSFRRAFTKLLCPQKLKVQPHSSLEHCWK

Histamine H2 receptor = Histamine H2 receptor (Homo sapiens, UniProt P25021); test: Binding affinity to histamine H2 receptor (unknown origin)
Chain of Histamine H2 receptor (P25021 whole entry): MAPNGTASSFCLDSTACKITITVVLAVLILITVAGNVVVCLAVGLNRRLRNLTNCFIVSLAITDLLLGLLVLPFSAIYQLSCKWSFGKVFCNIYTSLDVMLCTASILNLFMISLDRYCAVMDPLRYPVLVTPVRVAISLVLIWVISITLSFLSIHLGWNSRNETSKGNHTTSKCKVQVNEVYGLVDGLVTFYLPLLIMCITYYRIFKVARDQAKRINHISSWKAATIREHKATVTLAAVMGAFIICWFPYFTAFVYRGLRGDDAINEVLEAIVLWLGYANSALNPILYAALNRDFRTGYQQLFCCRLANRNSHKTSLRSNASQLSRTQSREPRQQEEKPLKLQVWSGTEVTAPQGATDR

Histamine H3 receptor [14] = target: Histamine H3 receptor (Homo sapiens, UniProt Q9Y5N1); test: Binding affinity to histamine H3 receptor (unknown origin)
Chain of Histamine H3 receptor (Homo sapiens, UniProt Q9Y5N1) (Q9Y5N1 whole entry): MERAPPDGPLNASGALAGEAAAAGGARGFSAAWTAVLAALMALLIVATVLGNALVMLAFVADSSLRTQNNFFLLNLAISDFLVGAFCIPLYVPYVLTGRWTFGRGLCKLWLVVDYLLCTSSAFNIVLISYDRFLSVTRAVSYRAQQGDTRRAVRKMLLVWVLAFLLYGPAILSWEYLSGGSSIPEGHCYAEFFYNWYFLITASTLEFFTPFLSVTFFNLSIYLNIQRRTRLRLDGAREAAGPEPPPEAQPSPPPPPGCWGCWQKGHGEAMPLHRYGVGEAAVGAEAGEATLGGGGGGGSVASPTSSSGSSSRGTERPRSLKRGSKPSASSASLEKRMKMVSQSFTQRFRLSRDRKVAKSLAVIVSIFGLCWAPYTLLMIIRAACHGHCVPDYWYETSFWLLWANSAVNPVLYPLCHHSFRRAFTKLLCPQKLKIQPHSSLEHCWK

Compound	ED50 (Rattus norvegicus [1]) [nmol]	ED50 (Rattus norvegicus [3]) [nmol]	other results
CN/C(=N\CCSCc1nc[nH]c1C)NC#N [CIMETIDINE]	464	464	Activity (Rattus norvegicus [1]): Dose-dependent effect; Activity (Rattus norvegicus [2]): tde; Activity (Rattus norvegicus [3]): Dose-dependent effect; Activity (Rattus norvegicus [4]): tde
S=C(NC1CCCCC1)N1CCC(c2cnc[nH]2)CC1 [THIOPERAMIDE]	>342	>342	–
CN/C(=N/CCSCc1nc[nH]c1C)NC#N [CIMETIDINE]	–	–	Activity (Rattus norvegicus [5]): Non-toxic; Activity (Rattus norvegicus [6]): Non-toxic
S=C(NCCc1c[nH]cn1)Nc1ccccc1	89	89	–
CNC(=C[N+](=O)[O-])NCCSCc1ccc(CN(C)C)o1 [RANITIDINE]	109	109	–
CN/C(=C/[N+](=O)[O-])NCCCn1ccnc1	–	–	Activity (Rattus norvegicus [5]): Non-toxic; Activity (Rattus norvegicus [6]): Non-toxic
c1ccc(NCCCOc2cccc(CN3CCCCC3)c2)cc1 [SKF95299]	>308	>308	–
CN/C(=N\C#N)NCCSCc1ccc(CN(C)C)o1	67	67	Activity (Rattus norvegicus [1]): Dose-dependent effect; Activity (Rattus norvegicus [7]): Non-toxic; Activity (Rattus norvegicus [8]): tde; Activity (Rattus norvegicus [9]): inactive; Activity (Rattus norvegicus [10]): inactive; Activity (Rattus norvegicus [3]): Dose-dependent effect; Activity (Rattus norvegicus [11]): tde; Activity (Rattus norvegicus [12]): Non-toxic
CNC(=S)N1CCC(c2c[nH]cn2)CC1	201	201	–
S=C(NCCCCc1c[nH]cn1)NCCc1ccccc1	80	80	–
C/N=C(\S)NCCCn1ccnc1	>504	>504	–
CN/C(=N\C#N)NCCCc1c[nH]cn1 [IMPROGAN]	330	330	Activity (Rattus norvegicus [5]): Non-toxic; Activity (Rattus norvegicus [1]): Dose-dependent effect; Activity (Rattus norvegicus [6]): Non-toxic; Kd (Histamine H3 receptor [13]): 5 µM; Activity (Rattus norvegicus [2]): tde; Activity (Rattus norvegicus [3]): Dose-dependent effect; Activity (Rattus norvegicus [4]): tde
c1cc(CN2CCCCC2)cc(OCCCNc2nc3ccccc3s2)c1 [ZOLANTIDINE]	>262	>262	–
CNC(=S)NCCSCc1[nH]cnc1C [METIAMIDE]	370	370	–
S=C(NCCCCc1c[nH]cn1)NC1CCCCC1	285	285	–
CNC(=S)NCCCCc1cnc[nH]1 [BURIMAMIDE]	–	–	Activity (Rattus norvegicus [5]): Non-toxic; Activity (Rattus norvegicus [6]): Non-toxic; Kd (Histamine H2 receptor): 7.8 µM; Kd (Histamine H3 receptor [14]): 0.1 µM

Compound	ED50 (Rattus norvegicus [1]) [nmol]	ED50 (Rattus norvegicus [3]) [nmol]	other results
C/N=C(\S)NCCCCCCc1c[nH]cn1	87	87	–
CN/C(=N\C#N)NCCSCc1ccccc1	>403	>403	–
C/N=C(\S)NCCCCc1c[nH]cn1 [BURIMAMIDE]	184	184	Activity (Rattus norvegicus [1]): Dose-dependent effect; Activity (Rattus norvegicus [2]): tde; Activity (Rattus norvegicus [3]): Dose-dependent effect; Activity (Rattus norvegicus [4]): tde
C/N=C(/NC#N)NCCSCc1csc(NC(=N)N)n1 [TIOTIDINE]	>320	>320	–
C/N=C(\S)NCCCc1c[nH]cn1 [NORBURIMAMIDE]	217	217	–
S=C(NCCCCCCc1c[nH]cn1)Nc1ccccc1	–	–	Emax (Rattus norvegicus [1]): < 100%; Emax (Rattus norvegicus [3]): < 100%
S=C(NCCCCc1c[nH]cn1)Nc1ccccc1	81	81	–
S=C(Nc1ccccc1)N1CCC(c2c[nH]cn2)CC1	–	–	Emax (Rattus norvegicus [1]): < 100%; Emax (Rattus norvegicus [3]): < 100%
O=C(NCCCCc1c[nH]cn1)Nc1ccccc1	65	65	–
CNC(=S)NCCSCc1ccc(CN(C)C)o1	117	117	Activity (Rattus norvegicus [5]): Non-toxic; Activity (Rattus norvegicus [6]): Non-toxic; Activity (Rattus norvegicus [2]): tde; Activity (Rattus norvegicus [4]): tde
C/N=C(\S)NCCc1c[nH]cn1	85	85	–
S=C(NCCCCc1c[nH]cn1)NCc1ccccc1	105	105	–
CN/C(=N\C#N)NCCSCc1ccccn1	>602	>602	–
NC(=NCc1ccc(Cl)cc1)SCCCc1cnc[nH]1 [CLOBENPROPIT]	–	–	Activity (Rattus norvegicus [5]): Non-toxic; Activity (Rattus norvegicus [6]): Non-toxic
CN/C(=C\[N+](=O)[O-])NCCCCc1c[nH]cn1	104	104	–
